Several values for one entry are separate records, joined by “and”; a condition that tells them apart may be missing. Identical values can stand only once.
tested on: not listed separately; assay: Biotransformation of xenobiotics in zebrafish embryos (LC/MS); assay type: in vivo; details: 5 μM in incubation medium, 8 hpf to 24 hpf
Method: Fifty zebrafish embryos at the 8 hour-post-fertilization (hpf) stage were incubated at 28.5° C. in 0.3× Danieau's solution (19.3 mM NaCl, 0.23 mM KCl, 0.13 mM MgSO4, 0.2 mM Ca(NO3)2, 1.7 mM HEPES, pH 7.0) with or without 5 μM 18 and 25-27, respectively. At 24 hpf, embryos were dechorionated manually and the chorions were carefully removed one by one from the culture medium. The zebrafish embryos were harvested and kept at −80° C. till analyzed by LC/MS.
200 μL Sodium acetate buffer solution (pH 5.0) was added to 50 zebrafish embryos. Samples were homogenized for 90 s by an Omni Bead Ruptor Homogenizer (Kennesaw, Ga., United States of America). 10 μL 10% ascorbic acid and 300 μL sodium acetate buffer were added to the homogenates. The mixture was incubated in the presence of β-glucuronidase (250 U) and sulfatase (3 U) at 37° C. for 45 min, and then 600 μL MeOH with 1% acetic acid was added. The resulting mixture was vortexed for 30 s and then centrifuged at 17000 g for 10 min. The supernatant was removed and evaporated under a gentle stream of nitrogen. The residue was reconstituted in 150 μL 90% MeOH with 0.2% acetic acid (AA), and 10 μL was analyzed directly by LC/MS.
(§1) LC/MS analysis was carried out with a Thermo-Finnigan Spectra System, which consisted of an Accela high speed MS pump, an Accela refrigerated autosampler, and an LCQ Fleet ion trap mass detector (Thermo Electron, San Jose, Calif., United States of America) incorporated with an electrospray ionization (ESI) interface. A Gemini-NX C18 column (150 mm×4.6 mm i.d., 5 μm; Phenomenex, Torrance, Calif., United States of America) was used for separation at a flow rate of 0.3 mL/min. The column was eluted with 100% A (5% aqueous methanol with 0.2% formic acid) for 1 min, followed by linear increases in B (95% aqueous methanol with 0.2% formic acid) to 55% from 1 to 4 min, to 85% from 4 to 25 min, then to 100% B from 25 to 30 min, and then with 100% B from 30 to 35 min. The column was then re-equilibrated with 100% A for 5 min. The LC eluent was introduced into the ESI interface. The positive ion polarity mode was set for the ESI source with the voltage on the ESI interface maintained at approximately 4.6 kV. Nitrogen gas was used as the sheath gas and auxiliary gas. Optimized source parameters, including capillary temperature (260° C.), sheath gas flow rate (31 arbitrary units), auxiliary gas flow rate (16 units), tube lens (34 V), and capillary voltage 9 V, were tuned using authentic samples. The collision-induced dissociation (CID) was conducted with an isolation width 2 Da and normalized collision energy of 35 for MS^2. The mass range was measured from 100 to 800 m/z. Data acquisition was performed with Xcalibur version 2.0 (Thermo Electron, San Jose, Calif., United States of America).

Row | Cysteine conjugates (metabolites) detected in zebrafish embryos | SMILES
1 | conjugate 35 was predominantly present | CCCCC/C=C/C(=O)/C=C/c1ccc(O)c(OC)c1 [Compound 18]
2 | Three conjugates 37, 37b, and 38 | CCCCC/C=C/C(=O)/C=C/c1ccc(O)c(O)c1 [Compound 26]

Row | SMILES | Cysteine conjugates (metabolites) detected in zebrafish embryos
3 | CCCCCCCC(=O)CCc1ccc(O)c(O)c1 [Compound 25] | conjugates 37 and 37b were exclusively identified

tested on: not listed separately; assay: Cysteine conjugates in mouse urine after oral gavage (LC/MS); assay type: in vivo; details: oral gavage 200 mg/kg, urine collected in 24 h
Method: as §1, with “Optimized source parameters, including capillary temperature (260° C.), sheath gas flow rate (31 arbitrary units), auxiliary gas flow rate (16 units), tube lens (34 V), and capillary voltage 9 V, were tuned using authentic samples. The collision-induced dissociation (CID) was conducted with an isolation width 2 Da and normalized collision energy of 35 for MS^2.” left out, “Data acquisition was performed with Xcalibur version 2.0 (Thermo Electron, San Jose, Calif., United States of America).” left out
Enzymatic deconjugation of mouse urine was performed as described previously with slight modifications. […] The resulting suspension was centrifuged at 17,000 g for 5 min, and 10 μL of supernatant was analyzed directly by LC/MS.

Row | Cysteine conjugates (metabolites) detected in mouse urine | SMILES
4 | conjugate 35 was predominantly present | CCCCC/C=C/C(=O)/C=C/c1ccc(O)c(OC)c1 [Compound 18]

tested on: Nrf2; assay: Nrf2 reporter activity by Tg(gstp1:GFP) fluorescence in transgenic zebrafish embryos; assay type: in vivo; details: olfactory epithelia, 24-hour treatment from 1 dpf to 2 dpf, 5 μM (FIG. 2 legends), ratio to DMSO control, mean ± SD, at least 10 embryos
Method: Zebrafish AB transgenic strains Tg(gstp1:GFP) were maintained in a Pentair Aquatic Ecosystem (Apopka, Fla., United States of America) fish housing unit with 14 h light/10 h dark cycle (see Tsujita, T., Li, L., Nakajima, H., Iwamoto, N., Nakajima-Takagi, Y., Ohashi, K., Kawakami, K., Kumagai, Y., Freeman, B. A., Yamamoto, M., and Kobayashi, M. (2011) “Nitro-fatty acids and cyclopentenone prostaglandins share strategies to activate the Keap1-Nrf2 system: a study using green fluorescent protein transgenic zebrafish.” Genes Cells 16, 46-57). The fish embryos were maintained at 28.5° C. in 0.3× Danieau's solution (19.3 mM NaCl, 0.23 mM KCl, 0.13 mM MgSO4, 0.2 mM Ca(NO3)2, 1.7 mM HEPES, pH 7.0) containing 30 μg/ml phenylthiourea (PTU) to inhibit pigmentation. Tg(gstp1:GFP) cross with AB wild-type strain fluorescence embryos were used for the experiment. Zebrafish embryos were washed, dechorionated and anaesthetized before observations, and fluorescence imaging for analysis.
Transgenic zebrafish embryos at 1 day-post-fertilization (dpf) were dechorionated and placed in Petri dishes containing different chemicals diluted in 0.3× Danieau's solution containing PTU. The chemical stock was dissolved in DMSO at 5 mM concentration.
An Olympus MVX10 Fluorescence Macroscope (Olympus, Center Valley, Pa., United States of America) equipped with a Hamamatsu C9300-221 high-speed digital CCD camera (Hamamatsu City, Japan) was used for fluorescence microscopy. Tg(gstp1:GFP) fluorescent embryos were anaesthetized in tricaine and imaged at 2 dpf. MetaMorph Basic software (Olympus, Center Valley, Pa., United States of America) was used for image acquisition and analysis.
The fluorescence intensity of the olfactory neural epithelia was quantitated using MetaMorph Basic software. In brief, GFP expression in the olfactory regions of Tg(gstp1:GFP) embryos treated with various chemicals was measured after 24-hour treatment from 1 dpf to 2 dpf. The GFP induction was detectable by fluorescence signal at the area of the olfactory epithelia in the anterior of the head region, the intensity was measured using an area of a circle of 60 pixel diameter of the fluorescence olfactory epithelia subtracted by a background non-fluorescence area next to the zebrafish embryo. Both the left and right olfactory epithelia were measured to give an average fluorescence value. The values are an average of measurements from at least 10 embryos.

Row | SMILES | Ratio/CTL, Tg(gstp1:GFP) fluorescence signal (times higher than vehicle)
5 | CCCCC/C=C/C(=O)/C=C/c1cc(O)c(O)c(OC)c1 [Compound 20] | 1.26 and 1.26 ± 0.14
6 | CCCCCC=CC(O)CCc1ccc(O)c(OC)c1 (stereo not shown) [Compound 4] | 1.13 and 1.13 ± 0.21
7 | CCCCCC(CC(=O)CCc1ccc(O)c(OC)c1)SCC(NC(C)=O)C(=O)O (stereo not shown) [Compound 7] | 1.04 ± 0.05
8 | CCCCC/C=C/C(=O)CCc1ccc(O)c(OC)c1 [Compound 1, [6]-shogaol, reference compound] | 2.40 ± 0.54
9 | CCCCCCCCC/C=C/C(=O)CCc1ccc(O)c(OC)c1 [Compound 3, reference compound] | 1.53 ± 0.53
10 | CCCCC/C=C/C(=O)/C=C/c1cccc(C(F)(F)F)c1 [Compound 22] | 1.28 and 1.28 ± 0.10
11 | CCCCCC(CC(O)CCc1ccc(O)c(OC)c1)SCC(N)C(=O)O (stereo not shown) [Compound 15] | 1.08 ± 0.65
12 | CCCCCC(CC(O)CCc1ccc(O)c(OC)c1)SC (stereo not shown) [Compound 17] | 0.72 ± 0.14
13 | CCCCCC(CC(=O)CCc1ccc(O)c(OC)c1)OC (stereo not shown) [Compound 10] | 0.96 ± 0.24
14 | CCCCC/C=C/C(=O)/C=C/c1cc(OC)c(O)c(C(F)(F)F)c1 [Compound 21] | 2.18 and 2.18 ± 0.53
15 | CCCCCCC[C@H](O)CC(=O)CCc1ccc(O)c(OC)c1 [Compound 12, reference compound] | 1.65 and 1.65 ± 0.29
16 | CCCCC/C=C/C(=O)/C=C/c1ccccc1C(F)(F)F [Compound 24] | 1.55 and 1.55 ± 0.67
17 | CCCCCC(CC(=O)CCc1ccc(O)c(OC)c1)SCC(N)C(=O)O (stereo not shown) [Compound 6] | 1.06 ± 0.20
18 | CCCCCCCC(=O)CCc1ccc(O)c(OC)c1 [Compound 5] | 1.27 and 1.27 ± 0.29
19 | CCCCCCCC(=O)/C=C/c1ccc(O)c(OC)c1 [Compound 19] | 3.29 and 3.29 ± 0.35
20 | CCCCCC(CC(O)CCc1ccc(O)c(OC)c1)SCC(NC(C)=O)C(=O)O (stereo not shown) [Compound 16] | 0.78 ± 0.12
21 | CCCCC/C=C/C(=O)/C=C/c1cccc(C(F)(F)F)c1F [Compound 23] | 1.63 and 1.63 ± 0.17
22 | CCCCC[C@H](O)CC(=O)CCc1ccc(O)c(OC)c1 [Compound 11, [6]-gingerol, reference compound] | 1.87 and 1.87 ± 0.51
23 | CCCCCCCCC[C@H](O)CC(=O)CCc1ccc(O)c(OC)c1 [Compound 13, reference compound] | 1.29 and 1.29 ± 0.40
24 | CCCCCC(CC(=O)CCc1ccc(O)c(OC)c1)SC (stereo not shown) [Compound 8] | 1.16 ± 0.47
25 | CCCCCCC/C=C/C(=O)CCc1ccc(O)c(OC)c1 [Compound 2, reference compound] | 1.67 ± 0.55

same assay, conditions: olfactory epithelia, 24-hour treatment from 1 dpf to 2 dpf, 5 μM (FIG. 2 legends), ratio to DMSO control, mean ± SD, at least 10 embryos; listed as 6S

Row | SMILES | Ratio/CTL, Tg(gstp1:GFP) fluorescence signal (times higher than vehicle)
26 | CCCCC/C=C/C(=O)CCc1ccc(O)c(OC)c1 [Compound 1, [6]-shogaol, reference compound] | 2.40

same assay, conditions: olfactory epithelia, 24-hour treatment from 1 dpf to 2 dpf, 5 μM (FIG. 2 legends), ratio to DMSO control, mean ± SD, at least 10 embryos; listed as 8S

Row | SMILES | Ratio/CTL, Tg(gstp1:GFP) fluorescence signal (times higher than vehicle)
27 | CCCCCCC/C=C/C(=O)CCc1ccc(O)c(OC)c1 [Compound 2, reference compound] | 1.67

same assay, conditions: olfactory epithelia, 24-hour treatment from 1 dpf to 2 dpf, 5 μM (FIG. 2 legends), ratio to DMSO control, mean ± SD, at least 10 embryos; listed as 10S

Row | SMILES | Ratio/CTL, Tg(gstp1:GFP) fluorescence signal (times higher than vehicle)
28 | CCCCCCCCC/C=C/C(=O)CCc1ccc(O)c(OC)c1 [Compound 3, reference compound] | 1.53

— US10363230B2, “6-shogaol derivatives and activities thereof” (North Carolina Agricultural and Technical State University, priority 2017, dated 2019)
